Assay results reported in publication PMC3502552, “A dimerized urea-based inhibitor of the prostate-specific membrane antigen for ^68Ga-PET imaging of prostate cancer” (EJNMMI Research, 2012).

Assays:
PSMA+ LNCaP cells = test: Cell binding and internalization in LNCaP cells; format: cell-based, human
Method: (§1) Internalization experiments were performed as previously described. Briefly, 10^5 LNCaP or PC-3 cells were seeded in poly-L-lysine-coated 24-well cell culture plates 24 h before incubation. After washing with PBS, the cells were incubated with the radiolabeled compounds ^68Ga]6 or ^68Ga]7 (25 nM final concentration) for 45 min at 37°C and at 4°C, respectively. To determine specific cellular uptake, cells were blocked with 2-(phosphonomethyl)-pentanedioic acid (PMPA, Axxora, Loerrach, Germany) to a final concentration of 100 μM. Cellular uptake was terminated by washing four times with 1 mL of ice-cold PBS. To remove surface-bound radioactivity, cells were incubated twice with 0.5 mL glycine-HCl in PBS (50 mM, pH = 2.8) for 5 min. The cells were washed with 1 mL of ice-cold PBS and lysed using 0.3 N NaOH (0.5 mL). The surface-bound and the internalized fractions were measured in a gamma counter.

PSMA− PC-3 cells = test: Cell binding and internalization in PC-3 cells; format: cell-based, human; details: 25 nM, 45 min
Method: as §1

LNCaP cells = test: Cell surface retention (efflux); format: cell-based, human; details: 2-PMPA added to avoid rebinding, compared to monomer
Method: The determination of cell surface retention was performed in accordance to a previously described experiment. Briefly, 5 × 10^6 LNCaP cells in a 320-μL RPMI 1640 medium were incubated with ^68Ga]6 or ^68Ga]7 (25 nM final concentration), respectively, for 45 min at 37°C. Cells were washed three times and resuspended in the RPMI 1640 medium (320 μL); samples were taken as a control for total cell-associated activity (cell surface bound and internalized). Subsequently, 0.5 μL of a 2-PMPA solution (100 mmol/L in DMSO) was added to avoid rebinding and to enhance the competitive pressure on releasing the radioactivity from the cell surface. At indicated time points, 10-μL samples were taken and transferred on top of a 400-μL microcentrifuge tube containing 350 μL of a 75:25 mixture of silicon oil (density 1.05; Aldrich), and mineral oil (density 0.872; Acros, Thermo Fisher Scientific). Subsequently, the tubes were centrifuged at 12,000 rpm for 2 min to separate cellular radioactivity and radioactivity solved in the medium. After freezing in liquid nitrogen, the bottom tips containing the cell pellet were cut off. The cell pellets and the medium were measured in a gamma counter to determine cellular uptake
(1) %uptake=100×cpminpellet/cpminpellet+cpminsupernatant

LNCaP tumor xenografts = test: Biodistribution in mice bearing LNCaP tumor xenografts; format: in vivo, BALB/c nu/nu mice; details: 1 h post-injection
Method: (§2) Male BALB/c nu/nu mice of 7 to 8 weeks old (Charles River Laboratories, Wilmington, MA, USA) were subcutaneously inoculated into the right trunk with 5 × 10^6 cells of either LNCaP or PC-3 (both in 50% Matrigel; Becton Dickinson, Heidelberg, Germany). The tumors were allowed to grow for 3 to 4 weeks until approximately 1 cm^3 in size. The ^68Ga-radiolabeled compounds were injected into a tail vein (1 to 2 MBq/mouse; 0.1 to 0.2 nmol). At 1 h after injection, the animals were sacrificed. Organs of interest were dissected, blotted dry, and weighed. The radioactivity was measured using a gamma counter and calculated as percentage injected dose per gram (% ID/g).

PSMA− PC-3 tumor = test: Biodistribution in PC-3 tumor-bearing mice; format: in vivo, BALB/c nu/nu mice; details: 1 h post-injection; PSMA− PC-3 tumor-bearing mice
Method: as §2, with “At 1 h after injection, the animals were sacrificed.” left out

[1] = Radiochemical stability in human serum and PBS; format: in vitro ADME; details: 2 h incubation at 37°C
Method: (§3) The radiochemical stability was analyzed in both phosphate-buffered saline (PBS) and human serum. After 2 h of incubation at 37°C, an equal volume of CH3CN was added to the samples to precipitate serum proteins. Subsequently, the samples were centrifuged for 5 min at 13,000 rpm. Aliquots of the supernatant and the PBS sample were analyzed via RP-HPLC. In addition, serum samples were run on a Superdex 75 GL 5/150 gel filtration column (GE Healthcare, Munich, Germany) to analyze potential protein binding (PBS pH 7 as eluent).

apo-transferrin = apo-transferrin (Homo sapiens, UniProt P02787); test: Complex stability against human transferrin / protein binding (size exclusion chromatography); format: in vitro ADME; details: after incubation in human serum or in the presence of apo-transferrin; 2 h, 37°C
Method: as §3, with “eluent). To analyze the complex stability against human transferrin, a 400-μL aliquot was added to 250 μg of apo-transferrin in PBS at pH 7 and incubated at 37°C (water bath) for 2 h. The complex stability was determined using a Superdex 75 GL 5/150 short column with PBS pH 7 as eluent.” for “eluent).”

LNCaP tumor xenograft = test: Dynamic microPET in mice bearing LNCaP tumor xenografts; format: in vivo; details: L-isomer versus D-isomer
Method: For the microPET studies, 10 to 25 MBq of either [^68Ga]6 or [^68Ga]7 in a volume of 0.15 mL (approximately 0.5 nmol) was injected via a lateral tail vein into mice bearing LNCaP tumor xenografts. The anesthetized animals (2% sevoflurane, Abbott, Wiesbaden, Germany) were placed in prone position into an Inveon small animal PET scanner (Siemens, Knoxville, TN, USA) to perform a 50-min dynamic microPET scan starting at 1 min post-injection followed by a 20-min static scan. All animal experiments complied with the current laws of the Federal Republic of Germany.

[2] = i.v. tail vein, 0.1 to 0.2 nmol

Sequence of apo-transferrin (P02787 20-698): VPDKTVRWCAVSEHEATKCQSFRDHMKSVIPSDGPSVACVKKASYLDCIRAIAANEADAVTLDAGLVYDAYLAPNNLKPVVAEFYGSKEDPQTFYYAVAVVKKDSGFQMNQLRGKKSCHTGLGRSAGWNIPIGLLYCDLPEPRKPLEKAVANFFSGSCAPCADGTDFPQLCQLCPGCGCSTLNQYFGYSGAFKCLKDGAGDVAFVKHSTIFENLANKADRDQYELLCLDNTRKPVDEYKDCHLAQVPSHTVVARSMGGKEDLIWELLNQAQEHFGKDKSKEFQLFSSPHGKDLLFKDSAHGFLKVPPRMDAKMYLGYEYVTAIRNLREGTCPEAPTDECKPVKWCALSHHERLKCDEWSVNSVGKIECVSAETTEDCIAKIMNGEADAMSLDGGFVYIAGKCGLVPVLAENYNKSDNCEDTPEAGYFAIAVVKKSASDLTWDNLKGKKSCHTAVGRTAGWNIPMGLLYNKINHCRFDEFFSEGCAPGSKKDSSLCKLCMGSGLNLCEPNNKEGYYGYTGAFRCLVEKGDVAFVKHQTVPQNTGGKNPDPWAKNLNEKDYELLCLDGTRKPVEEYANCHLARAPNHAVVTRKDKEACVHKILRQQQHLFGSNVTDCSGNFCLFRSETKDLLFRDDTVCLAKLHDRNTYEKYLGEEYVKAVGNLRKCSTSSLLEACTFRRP

## O=C(O)CC[C@H](NC(=O)N[C@@H](CCCCNC(=O)CCCCCNC(=O)CCc1ccc(O)c(CN(CCN(CC(=O)O)Cc2cc(CCC(=O)NCCCCCC(=O)NCCCC[C@H](NC(=O)N[C@@H](CCC(=O)O)C(=O)O)C(=O)O)ccc2O)CC(=O)O)c1)C(=O)O)C(=O)O [[^68Ga]7, metal not drawn]
PSMA+ LNCaP cells; 25 nM, 45 min
  Internalized fraction: approximately 25%
PSMA+ LNCaP cells; 25 nM, 45 min, percentage of applied radioactivity bound to 10^6 cells
  Cellular uptake: 40.04 ± 6.09%
PSMA+ LNCaP cells; 100 μM 2-PMPA
  Uptake in the presence of 2-PMPA: blocked
PSMA− PC-3 cells
  Binding to PSMA− PC-3 cells: no binding
LNCaP cells
  Cell surface retention (efflux experiment): prolonged cell surface retention
LNCaP tumor xenografts; LNCaP tumor
  Enhanced tumor uptake of dimer versus monomer (factor): approximately 1.7
  Tumor-to-blood ratio (T/B): 26.5
LNCaP tumor xenografts; blocked with 2 mg/kg 2-PMPA
  Kidney uptake after co-injection of PMPA: 8.29 ± 0.83 % ID/g
  Spleen uptake after blocking: 0.67 ± 0.11 % ID/g
LNCaP tumor xenografts; [2]
  Organ distribution, Blood: 0.31 ± 0.03 % ID/g
  Organ distribution, Brain: 0.17 ± 0.01 % ID/g
  Organ distribution, Heart: 0.90 ± 0.12 % ID/g
  Organ distribution, Intestine: 0.57 ± 0.14 % ID/g
  Organ distribution, Kidney: 133.43 ± 18.88 % ID/g
  Organ distribution, Liver: 1.29 ± 0.11 % ID/g
  Organ distribution, Lung: 2.25 ± 0.24 % ID/g
  Organ distribution, Muscle: 0.90 ± 0.01 % ID/g
  Organ distribution, Spleen: 17.88 ± 4.53 % ID/g
LNCaP tumor xenografts; n = 5
  Organ distribution, LNCaP tumor: 8.22 ± 1.78 % ID/g
PSMA− PC-3 tumor
  Organ distribution, PC-3 tumor: 0.93 ± 0.53 % ID/g
[1]
  Intact compound by HPLC analysis: 99%
apo-transferrin
  Changes in size exclusion chromatography: no changes in size exclusion chromatography were detected
LNCaP tumor xenograft
  Tumor time-activity behaviour in dynamic PET: accumulation in the tumor
